In ChEMBL document CHEMBL3507680, “University of Dundee, Gates Library screen for HepG2 cell viability” one finds cytotoxicity data, which are given here for 97 compounds.

The nature of the series: Human HepG2 cell viability assay in 384 well format. Also noted: dose 125 nL, time 70.5 hour; concentration not given beside the values. As to conditions: HepG2 cells, read-out: Inhibition. The series is classed as toxicity, cell-based.
For the compound `N#Cc1c(N)nc2c(c1-c1c[nH]nc1C1CCCCC1)CNCC2`, the cytotoxicity at 70.5 h turned out to be 18.5%. Consider `O=c1cc(N2CCOCC2)cnn1CCc1ccc(F)cc1`, for which the cytotoxicity at 70.5 h was -1.15%. Then `CCC(=O)c1ccc(OCC(=O)N(C)C(C)c2ccon2)cc1` (configuration not stated), with -13.2%.

With `O=C1NCCCC[C@@H]1Nc1ccc(-c2nc(C3CC3)no2)cn1`, the cytotoxicity at 70.5 h is -2.61%.

Consider `C=Cc1ccc(C(=O)NC2CCCc3nc(N(C)C)ncc32)cc1` (configuration not stated), for which the cytotoxicity at 70.5 h came out at 16.1%. Then `Cc1cccc(-c2nc3cc(S(=O)(=O)N4CCCC4)ccc3n2C)n1`, with -10.3%; and `Cn1nc(C2CC2)c2c1NC(=O)CC2c1ccc(CN2CCCCC2)s1` (configuration not stated), with -3.05%. For the compound `COc1ccc(-c2ccnc(N)c2)c(C)c1`, the cytotoxicity at 70.5 h was -15.9%. Under `CS(=O)(=O)N1CCc2[nH]cnc2C12CCN(C(=O)c1cccnc1)CC2` stands -0.221%. As for `O=S1(=O)C[C@@H]2[C@H](C1)N(Cc1ncc[nH]1)CCN2Cc1cccnc1`, the cytotoxicity at 70.5 h was -3.77%. Take `CC(C)CCn1cc(C(C(=O)O)N2CCCN(C3CCCC3)CC2)cn1` (configuration not stated): the cytotoxicity at 70.5 h is -9.63%. Take `Cc1ccsc1CN1CCC(n2cc(C(O)c3ccccc3)nn2)CC1` (configuration not stated): the cytotoxicity at 70.5 h was -8.81%.

Turning to `CCNc1ncc(C(=O)NCc2ccc(F)c(C(F)(F)F)c2)cn1`, the cytotoxicity at 70.5 h is 20.6%. Then `CCc1nc(NCCc2c(C)nn(CC)c2C)c2cnn(C)c2n1`, with -9.28%. Consider `Cc1nnc(SCC(=O)NCC(c2ccccc2Cl)N(C)C)s1` (configuration not stated), for which the cytotoxicity at 70.5 h is -7.07%. Under `Cn1cc(CN2CCC(CCC(=O)NCc3ccc(F)cc3)CC2)cn1` stands 4.72%.

With `Cc1ccc(CN2CCN(c3ncccc3C(N)=O)CC2CCO)cc1` (configuration not stated), the cytotoxicity at 70.5 h is -2.3%. Then `CCn1cc(CN2CCC(N3CCC(O)CC3)CC2)cc1C#N`, with -5.22%; and `Fc1ccc(Cn2ncc3c2CN(c2noc(C4CC4)n2)C3)cc1`, with -3.43%. Then `O=C(O)C1(Oc2ccccc2)CCN(c2ccncc2)CC1`, with -2.23%; and `CN(C)[C@H]1CCCCN(C(=O)c2cccc(-c3cccc(F)c3)c2)C1`, with -4.14%; and `CC(=O)Nc1ccc(CNC(=O)CNCc2nnc(C)o2)cc1`, with 2.3%. Then `CCNC(=O)[C@@H]1C[C@H](N)CN1C1CCN(c2ccccc2OC)CC1`, with -3.8%. In the case of `CC(=O)c1ccc(C(=O)N2CCC(c3cc(O)nc(C)n3)CC2)s1`, the cytotoxicity at 70.5 h is -10.9%. Under `CCc1nccc(CN2CCC(CNC(=O)c3occc3C)C2)n1` (configuration not stated) stands -5.76%; under `CCn1nc(C)cc1S(=O)(=O)N1CCC2(CC(=O)NC2=O)C1` (configuration not stated), -5.01%. For the compound `CCc1cc(CN(Cc2cccnc2)C2CN3CCC2CC3)on1` (configuration not stated), the cytotoxicity at 70.5 h worked out at 24.6%. Then `CCn1cnnc1CN(C)c1nccc(C2CCCC2)n1`, with -7.13%; and `Cc1nc(CCCNC(=O)c2coc(CN3CCOCC3)c2)sc1C`, with -0.625%.

As to `CC(=O)c1cc(CN2C[C@@H](CN3CCC(O)CC3)[C@@H](CO)C2)n(C)c1`, the cytotoxicity at 70.5 h worked out at 0.0676%. `O=C(c1cc(COc2ccc3c(c2)OCO3)[nH]n1)N1CCCO1`: the cytotoxicity at 70.5 h is -2.52%. Take `Cc1ccccc1OC1CCN(C(=O)CNC(=O)N(C)C)CC1`: the cytotoxicity at 70.5 h is -15.2%.

Take `O=C1NCCCc2[nH]c(-c3nc(C4CC4)no3)nc21`: the cytotoxicity at 70.5 h was -3.92%.

As for `COc1nc2ccccc2cc1CN1CCC(CNS(C)(=O)=O)C1` (configuration not stated), the cytotoxicity at 70.5 h came to 0.512%.

Consider `CC(C)CN1CCCn2nc(CNC(=O)Cc3cccc(O)c3)cc2C1`, for which the cytotoxicity at 70.5 h was -9.37%. Under `Cc1cc2[nH]cc(C(=O)N3CCCCC3c3ccc(F)cc3)c(=O)n2n1` (configuration not stated) stands -3.07%; under `CCc1ccc(C2c3nc[nH]c3CCN2Cc2nccn2CC)nc1` (configuration not stated), 33.1%; under `COCCc1noc(CN2C(=O)OC[C@@H]2C(C)C)n1`, 2.12%. With `CCCc1cc(=O)[nH]c(-c2cccc(CN3CCN4CCCC4C3)c2)n1` (configuration not stated), the cytotoxicity at 70.5 h was -6.97%. Take `O=C(NCC(F)F)c1ccc(S(=O)(=O)NCCc2cn[nH]c2)cc1`: the cytotoxicity at 70.5 h is -8.61%.

Consider `COc1ccccc1N1CC(NC(=O)c2cc(C(C)C)nn2C)CC1=O` (configuration not stated), for which the cytotoxicity at 70.5 h is 12.6%. `Cc1ccccc1N1CCN(C(=O)CCc2nncn2C)C(C)C1` (configuration not stated): the cytotoxicity at 70.5 h was -1.67%. On to `CCN(CCc1nc2cc(C)ccc2[nH]1)C(=O)[C@@H](N)COC`, for which the cytotoxicity at 70.5 h came out at 10%. Under `NCC(=O)N1CCCCC1c1ccc(F)cc1` (configuration not stated) stands -2.07%; under `NCCn1cc(C(=O)N2CCNC(=O)C2c2cccc(F)c2)nn1` (configuration not stated), -11.9%; under `CCc1[nH]c2c(CNc3cncc(C(=O)N(C)C)n3)cc(C)cc2c1C`, 27.8%.

Consider `CNc1nc(C(=O)N2CCN(c3cc(C)nc(C)c3)CC2)cs1`, for which the cytotoxicity at 70.5 h is -9.69%. Then `COc1ccc([C@@H]2CN(C(=O)Cc3cccs3)C[C@H]2NC(C)=O)cc1`, with -4.36%; and `NC1CCN(C2CCN(c3ccc(-c4ccco4)cc3)CC2)CC1`, with -12%. Consider `O=C(NCc1cc2ccccc2s1)c1cc(CN2CCCC(O)C2)on1` (configuration not stated), for which the cytotoxicity at 70.5 h is -3.19%. Then `O=C(CCC(F)(F)F)N1CCCC(CO)(CC2CC2)C1` (configuration not stated), with -8.1%; and `Cc1ccc(-c2ccnc(NC(C)c3n[nH]c(C)n3)n2)c(C)n1` (configuration not stated), with -9.42%; and `O=C1NC(C(=O)NCc2cccnc2Oc2ccc(F)cc2F)CO1` (configuration not stated), with -18.3%. For `CCC(CC)CN1CCCn2nc(CNC(=O)COC)cc2C1`, the cytotoxicity at 70.5 h is -10.4%. With `O=C(Nc1ccccc1)c1cc2n(n1)CCCN(C(=O)c1ccc[nH]1)C2`, the cytotoxicity at 70.5 h worked out at 14.9%.

On to `O=C(NCCc1c[nH]cn1)c1ccc(S(=O)(=O)NC2CCOC2)cc1` (configuration not stated), for which the cytotoxicity at 70.5 h is -0.712%.

For `CC(C)(C)n1cc(C2=CCN(CCc3ccccn3)CC2)cn1`, the cytotoxicity at 70.5 h was -5.94%. As for `CN(Cc1noc2c1CCCC2)C(=O)CN1C(=O)COc2ccccc21`, the cytotoxicity at 70.5 h was -6.93%. Under `Cc1cc2cc(C(=O)N3CCN(CCO)[C@@H]4CS(=O)(=O)C[C@@H]43)ccc2o1` stands 19.6%; under `OCCNc1cc(-c2nccnc2N2CCCC2)c2cc[nH]c2n1`, 34%. `CN(c1ncccc1CNCc1ncc[nH]1)C1CCCCC1`: the cytotoxicity at 70.5 h is -13.1%. Under `Cc1ccc(C(C(=O)N2CC(c3ccccn3)C2)N(C)C)cc1` (configuration not stated) stands 13%.

As for `COCCN1C(=O)[C@H]2CC[C@@H]1CN(C(=O)Cc1ccc(O)c(Cl)c1)C2`, the cytotoxicity at 70.5 h came out at 16.7%. With `Cc1nn2c(NCC(=O)NC3CC3)cc(-c3ccccc3)nc2c1C`, the cytotoxicity at 70.5 h is -2.36%. Then `O=C(c1cc[nH]n1)N1CCc2ncnc(N3CCSCC3)c2CC1`, with 10.4%; and `Cc1ccc(Cl)c(C(C(=O)O)N(C)Cc2cnn(C)c2)c1` (configuration not stated), with 5.66%; and `Cc1ccccc1-n1cc(C2=CCN(CCn3cc[nH]c3=O)CC2)cn1`, with -6.71%. Under `Cn1ccc2c(-c3ccc(NC4CC4)nn3)ccnc21` stands -5.5%; under `c1ccc(Oc2ncccc2CNCc2ccccn2)cc1`, -4.5%; under `CSc1ccc(-n2ccnc2-c2cc3n(n2)CCNC3)cc1`, 25.5%. Then `Cc1nn(C)cc1Cn1c(=O)cnc2ccccc21`, with -19.1%; and `CN(CCO)Cc1nnc(C2CCN(C(=O)c3ccccn3)CC2)n1C`, with 1.55%. Turning to `CN(C)CCNc1cc(-c2ccc[nH]c2=O)c2cc[nH]c2n1`, the cytotoxicity at 70.5 h was -5.94%. For the compound `CO[C@H]1CN(C(C)C)C[C@@H]1NC(=O)c1cc(-c2ccccc2F)n[nH]1`, the cytotoxicity at 70.5 h is -6.15%. Under `COc1cc(C)sc1C(=O)N1CCCCC1c1ccccn1` (configuration not stated) stands -16.5%; under `O=C(c1cccnc1N1CCOC(c2ccc(Cl)cc2)C1)N1CCCC1` (configuration not stated), -5.24%.

With `CCc1cnc(C)nc1NCC(O)CN1CCCCCC1` (configuration not stated), the cytotoxicity at 70.5 h is -4.26%. Then `O=C(c1cc(C2CC2)no1)N1C[C@H]2CC[C@@H]1CN(Cc1ccccn1)C2`, with -14.9%. Then `CC(=O)c1ccc(N2CCC3(CCC(=O)N(C4CC4)C3)CC2)nc1`, with -1.87%; and `O=C1CC(c2ccc(CO)o2)c2cnn(Cc3ccco3)c2N1` (configuration not stated), with -7.94%. For the compound `Cc1nc(C)n(CCNC(=O)C(C)n2ccnc2C(C)C)n1` (configuration not stated), the cytotoxicity at 70.5 h is -0.492%. With `CCN(CC)C(=O)[C@@H]1C[C@H](NC(=O)c2cccn2C(C)C)CN1C`, the cytotoxicity at 70.5 h was -9.19%.

`CCC(Nc1nccc(C2CCCC2)n1)c1ccccn1` (configuration not stated): the cytotoxicity at 70.5 h was -3.14%. Take `O[C@]12CCNC[C@H]1CN(c1ncccc1Cl)CC2`: the cytotoxicity at 70.5 h is -16.6%.

For `CSC(C)C(=O)N1CCC(Oc2cc(C)ccc2F)(C(=O)O)CC1` (configuration not stated), the cytotoxicity at 70.5 h was -7.76%. In the case of `Cc1nc(C)n(CC(C)C(=O)N2CCCN(C3CCCC3)CC2)n1` (configuration not stated), the cytotoxicity at 70.5 h is -6.07%. Then `O=C(c1cccc(Cl)c1F)N1CCOC2(CNCCOC2)C1` (configuration not stated), with 32.2%; and `Cc1ccc2cc(CN(C)Cc3nccs3)c(=O)[nH]c2c1`, with -11.3%; and `FC(F)(F)CCc1ncnn1-c1ccc2c(c1)OCO2`, with -7.77%. Under `Cc1[nH]c(=O)c(C#N)cc1C(=O)N1C[C@@H](CN2CCCC2)C[C@H](CO)C1` stands -7.24%. Then `COc1ccc(CCN2CCCC(CN(C)Cc3ccc(C)o3)C2)cc1` (configuration not stated), with -5.02%; and `Cc1ccc2c(ccn2CCC(=O)O)c1`, with -4.94%; and `Cc1cc(C(=O)N2CCC(c3nccn3Cc3ccncc3)CC2)no1`, with 1.65%. On to `CS(=O)(=O)N1C[C@@H]2CC[C@H](C1)N(Cc1cscn1)C2=O`, for which the cytotoxicity at 70.5 h is -11.4%. As for `Cc1ccccc1N1CCN(C(=O)c2ccc[nH]2)C(C)C1` (configuration not stated), the cytotoxicity at 70.5 h was -2.71%. Then `CCCn1nccc1C(=O)N1CCCN(CCCc2ccccc2)CC1`, with -7.2%. Under `COc1ccc(C(=O)C2CCCN(Cc3ccc(C)o3)C2)c(OC)c1` (configuration not stated) stands -4.07%.
